The results in this text go back to patent US9512152B2, “Phospholipid compound containing unsaturated fatty acid derivative having cyclopropane ring” (NISHIZAKI BIOINFORMATION RESEARCH INSTITUTE, priority 2013, dated 2016).

In one assay the target is T1, Human PTP1B (Homo sapiens, UniProt P18031).
T1 construct: made in house; host or cells: E. coli BL21(DE3)
T1 sequence (P18031 1-435): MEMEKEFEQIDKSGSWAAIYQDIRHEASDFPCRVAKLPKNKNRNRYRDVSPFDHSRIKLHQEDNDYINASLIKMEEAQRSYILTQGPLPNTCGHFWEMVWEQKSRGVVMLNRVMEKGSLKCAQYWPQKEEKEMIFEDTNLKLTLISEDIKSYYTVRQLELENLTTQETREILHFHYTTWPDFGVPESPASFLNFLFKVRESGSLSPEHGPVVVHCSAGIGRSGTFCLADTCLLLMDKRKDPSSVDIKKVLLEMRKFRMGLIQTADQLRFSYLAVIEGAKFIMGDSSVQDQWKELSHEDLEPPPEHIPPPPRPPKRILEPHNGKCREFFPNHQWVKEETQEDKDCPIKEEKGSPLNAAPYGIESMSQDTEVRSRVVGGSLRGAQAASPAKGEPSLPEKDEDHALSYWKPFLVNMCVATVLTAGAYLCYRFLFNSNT
As to the kind of experiment: Assay of PTP1B activity under cell-free conditions (p-NPP substrate). Particulars: FIG. 2. The assay is classed as biochemical. The protocol:
Protein tyrosine phosphatase was measured under cell-free conditions by a method partially modified from the methods described in previous reports (Baba Y, et al. J Am Chem Soc 2003; 125; 9740-9749; Rice R L, et al. Biochemistry 1997; 36: 15965-15974). Human PTP1B was cloned to a pGEX-6P-3 vector having a GST tag at the NH2 terminal, and expressed in competent E. coli BL21(DE3) suitable for transformation and protein expression. GST fusion PTP1B was affinity-purified using glutathione sepharose 4B (GE Healthcare Bio-Science KK, Tokyo, Japan). It was reacted with p-nitrophenylphosphate (p-NPP) (Sigma, St. Louis, Mo., USA) as a substrate and PTP1B activity was measured. The enzyme was pre-incubated in a reaction medium [50 mM HEPES, 1 mM EDTA, 50 mM NaCl, 1 mM dithiothreitol, pH 7.2] at 37° C. for 30 min in the presence or absence of diDCP-LA-PE and with or without addition of Na3VO4 which is a PTP1B inhibitor. Then, p-NPP (10 mM) was added to the reaction medium, and the mixture was incubated for 60 min. The reaction was discontinued by the addition of 0.1N NaOH. Dephosphorylated p-NPP, i.e., p-NP, was quantified at an absorbance of 405 nm by using SpectraMax PLUS384 (Molecular Devices, Sunnyvale, Calif., USA).

The test system of assay [1] is STZ-treated C57BL/6J mouse. Kind of assay: Oral glucose tolerance test in streptozotocin-treated type 1 diabetes model mouse. The format is in vivo. Particulars: oral 1 mg/kg, 4 consecutive days before OGTT and 30 min before glucose, FIG. 11. The protocol: C57BL/6J mouse (male, 8-week-old) (Japan SLC Inc.; Shizuoka, Japan) was used. Streptozotocin (STZ; 250 mg/kg) or saline as a control was injected intraperitoneally. After 4 days from the injection, an oral glucose tolerance test (OGTT) was performed.

Turning to `CCCCCC1CC1CC1CC1CCCCCCCC(=O)OC[C@H](COP(=O)(O)OCCN)OC(=O)CCCCCCCC1CC1CC1CC1CCCCC` (some centres unmarked) [diDCP-LA-PE, 1,2-o-bis-[8-{2-(2-pentyl-cyclopropylmethyl)-cyclopropyl}-octanoyl]-sn-glycero-3-phosphatidylethanolamine], the “PTP1B inhibition (phosphatase activity, dephosphorylated p-NPP)” value at Human PTP1B is on record as “inhibits PTP1B in a concentration-dependent manner”. Besides, the “Suppression of increase in blood glucose” value in assay [1] is “significantly suppresses an increase in the blood glucose”.
